# Laboratory results taken from patent US12509460B2 (Skyhawk Therapeutics, Inc., priority 2019, dated 2025).
# Where two headings read alike, the source gives them in different places.
# Assays:
# MDR1 (P-gp) = assay: Blood-brain-barrier (BBB) penetration potential via MDCK-MDR1 permeability assay; conditions: dog; for Papp A→B at 120 min, 5 μM: MDCK-MDR1, pH 7.4, MDCK-MDR1: Papp A-B; for Papp B→A at 120 min, 5 μM: MDCK-MDR1, pH 7.4, MDCK-MDR1: Papp B-A
# Method: (§1) Example A13: Assessment of Blood-Brain-Barrier (BBB) Penetration Potential Via an MDCK-MDR1 Permeability Assay
# (§2) The permeability of compounds is assessed for BBB penetration potential by use of an MDCK-MDR1 assay (Catalog EA203) performed by Absorption Systems, Exton PA.
# (§3) Experimental Procedure: MDR1-MDCK cell monolayers are grown to confluence on collagen-coated, microporous membranes in 12-well assay plates. The permeability assay buffer is Hanks' balanced salt solution containing 10 mM HEPES and 15 mM glucose at a pH of 7.4. The buffer in the receiver chamber also contained 1% bovine serum albumin. The dosing solution concentration is 5 μM of test article in the assay buffer. Cell monolayers are dosed on the apical side (A-to-B) or basolateral side (B-to-A) and incubated at 37° C. with 5% CO2 in a humidified incubator. Samples are taken from the donor and receiver chambers at 120 minutes. Each determination is performed in duplicate. The flux of lucifer yellow is also measured post-experimentally for each monolayer to ensure no damage is inflicted to the cell monolayers during the flux period. All samples are assayed by LC-MS/MS using electrospray ionization.
# (§4) The apparent permeability (Papp) and percent recovery are calculated as follows:
# (§5) Analytical Method: Liquid Chromatography. Column: Waters ACQUITY UPLC BEH Phenyl 30 ×2.1 mm, 1.7 μm; M.P. Buffer. 25 mM ammonium formate buffer, pH 3.5; Aqueous Reservoir (A): 90% water, 10% buffer, Organic Reservoir (B): 90% acetonitrile, 10% buffer, Flow Rate: 0.7 mL/minute; Gradient Program:
# (§6) • Total Run Time: 1.00 minute • Autosampler. 2 μL injection volume • Wash1: water/methanol/2-propanol:1/1/1; with 0.2% formic acid • Wash2: 0.1% formic acid in water • Brain Penetration • Potential Classification: A-B Papp≥3.0 and Efflux Ratio <3.0: High • A-B Papp≥3.0 and 10≥Efflux Ratio >3.0: Moderate • A-B Papp≥3.0 and Efflux Ratio≥10: Low • A-B Papp<3.0: Low
# [1] = test system: MDR1-MDCK cell monolayers; assay: as above
# Method: as §1, §2, §3, §4, §5, §6
# MDR1 = assay: as above; conditions: dog, MDCK-MDR1, pH 7.4, MDCK-MDR1: Efflux
# Method: as §1, §2, §3, §4, §5, §6
# [2] = test system: SMN protein in spinal muscular atrophy (SMA) patient fibroblasts (GM03813, Coriell); assay: SMN protein assay, Mesoscale Discovery (MSD); assay type: cell-based, human; conditions: read-out: SMN2 protein EC50
# Procedure, shortened: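 SMA patient fibroblasts (GM03813) seeded at 7000 cells/well and exposed to compound at 2.5 μM to 0.6 nM for 48 hours. Lysates assayed for SMN by MSD immunoassay, with absolute SMN amount calculated from a per-plate SMN standard curve (1 μg/ml to 19.5 pg/ml).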
# [3] = Quantitative splicing assay (HTT), qPCR; assay type: cell-based, human; conditions: Homo sapiens, GM04724, 24 h, GM04724 lymphoblasts, read-out: HTT Splicing: E49-50 EC50
# Procedure, shortened: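 Patient lymphoblasts (50,000 cells/well) dosed immediately after plating for 24 h at 2.5 uM to 0.15 nM in 0.1% DMSO. Lysed, cDNA made directly from cells, and inclusion of the intron 49 cryptic exon quantified by TaqMan qPCR.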
# [4] = test system: SMN FL and SMN Δ7 in spinal muscular atrophy (SMA) patient fibroblasts (GM03813, Coriell); assay: Quantitative splicing assay (SMN), qPCR; assay type: cell-based, human; conditions: read-out: SMN2 Splicing FL EC50
# Method: Spinal muscular atrophy (SMA) patient fibroblasts (GM03813, Coriell) are plated in 96-well plates at 50,000 cells/well. […] Treated cells are lysed and cDNA synthesized using the Fast Advanced Cells-to-Ct kit (Thermofisher A35378) according to the manufacturer's instructions. 2 μL of each cDNA are used in qPCR reactions. […] Reactions are run in a Quant Studio 6 qPCR instrument with default settings.
# [5] = test system: mHTT protein in GM04724 (CAG 70/20) Huntington's disease patient lymphoblast cells; assay: mHTT protein assay, 2B7-MW1 assay via Mesoscale Discovery (MSD); assay type: cell-based, human
# Procedure, shortened: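 Patient lymphoblasts treated 48 h with compound from 10 μM to 0.6 nM. mHTT quantified by MSD 2B7-MW1 immunoassay, whose signal depends on polyQ expansion and HTT size. Viability measured on a replicate plate by CellTiter Glo.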
# [6] = SMA patient fibroblasts (GM03813), 48 hours
# [7] = Homo sapiens, Fibroblast, 24 h, SMA patient fibroblasts (GM03813), 24 h
# [8] = GM04724 (CAG 70/20) Huntington's disease patient lymphoblasts
# [9] = SMA patient fibroblasts GM03813, 48 hours, MSD
# [10] = Homo sapiens, Fibroblast, 24 h, SMA patient fibroblasts GM03813, 24 h, qPCR
# [11] = GM04724 Huntington's disease patient lymphoblasts
smiles,measurement,setting,value
"Cc1nc2cc(O)c(-c3ccc(N(C)[C@@H]4C[C@H]5CC[C@H](N5)[C@@H]4F)nn3)cc2o1 [Compound 117A, 6-(6-(((1S,2S,3R,5R)-2-fluoro-8-azabicyclo[3.2.1]octan-3-yl)(methyl)amino)pyridazin-3-yl)-2-methylbenzo[d]oxazol-5-ol]","Papp A→B at 120 min, 5 μM",MDR1 (P-gp); A-B,6.87 ×10⁻⁶ cm/s
same,"Papp B→A at 120 min, 5 μM",MDR1 (P-gp); B-A,39.9 ×10⁻⁶ cm/s
same,MDCK-MDR1: % Recov A-B,[1]; A-B,84%
same,MDCK-MDR1: % Recov B-A,[1]; B-A,97%
same,"efflux ratio at 120 min, 5 μM",MDR1,6
same,EC50,[2]; [6],16 to 50 nM
same,EC50,[3],51 to 100 nM
same,EC50,[4]; [7],101 to 500 nM
same,EC50,[5]; [8],16 to 50 nM
"CN(c1ccc(-c2cc3c(=O)n(C)ccc3cc2O)nn1)[C@@H]1C[C@H]2CC[C@H](N2)[C@@H]1F [Compound 83A, 7-(6-(((1S,2S,3R,5R)-2-fluoro-8-azabicyclo[3.2.1]octan-3-yl)(methyl)amino)pyridazin-3-yl)-6-hydroxy-2-methylisoquinolin-1(2H)-one]","Papp A→B at 120 min, 5 μM",MDR1 (P-gp); A-B direction,0.98 ×10⁻⁶ cm/s
same,"Papp B→A at 120 min, 5 μM",MDR1 (P-gp); B-A direction,43.5 ×10⁻⁶ cm/s
same,MDCK-MDR1: % Recov A-B,[1]; A-B direction,89%
same,MDCK-MDR1: % Recov B-A,[1]; B-A direction,83%
same,"efflux ratio at 120 min, 5 μM",MDR1; efflux ratio,44
same,EC50,[2]; [9],0.01 to 15 nM
same,EC50,[3]; qPCR,0.01 to 15 nM
same,EC50,[4]; [10],0.01 to 15 nM
same,EC50,[5]; [11],0.01 to 15 nM
"CN(c1ccc(-c2ccc(-c3cnccn3)cc2O)nn1)[C@@H]1C[C@H]2CCC[C@H](N2)[C@@H]1F [Compound 24A, 2-(6-(((1S,2S,3R,5R)-2-fluoro-9-azabicyclo[3.3.1]nonan-3-yl)(methyl)amino)pyridazin-3-yl)-5-(pyrazin-2-yl)phenol]","Papp A→B at 120 min, 5 μM",MDR1 (P-gp); A-B direction,4.73 ×10⁻⁶ cm/s
same,"Papp B→A at 120 min, 5 μM",MDR1 (P-gp); B-A direction,61.3 ×10⁻⁶ cm/s
same,MDCK-MDR1: % Recov A-B,[1]; A-B direction,79%
same,MDCK-MDR1: % Recov B-A,[1]; B-A direction,90%
same,"efflux ratio at 120 min, 5 μM",MDR1; efflux ratio,13
same,EC50,[2]; [9],0.01 to 15 nM
same,EC50,[3]; qPCR,51 to 100 nM
same,EC50,[4]; [10],101 to 500 nM
same,EC50,[5]; [11],51 to 100 nM
"CN(c1ccc(-c2cc(F)c(-c3ccoc(=O)c3)cc2O)nn1)[C@H]1C[C@@H]2CC[C@@H](N2)[C@H]1F [Compound 17B, 4-(2-fluoro-4-(6-(((1R,2R,3S,5S)-2-fluoro-8-azabicyclo[3.2.1]octan-3-yl)(methyl)amino)pyridazin-3-yl)-5-hydroxyphenyl)-2H-pyran-2-one]","Papp A→B at 120 min, 5 μM",MDR1 (P-gp); A-B direction,1.91 ×10⁻⁶ cm/s
same,"Papp B→A at 120 min, 5 μM",MDR1 (P-gp); B-A direction,36.8 ×10⁻⁶ cm/s
same,MDCK-MDR1: % Recov A-B,[1]; A-B direction,62%
same,MDCK-MDR1: % Recov B-A,[1]; B-A direction,79%
same,"efflux ratio at 120 min, 5 μM",MDR1; efflux ratio,19
same,EC50,[2]; [9],16 to 50 nM
same,EC50,[3]; qPCR,16 to 50 nM
same,EC50,[4]; [10],51 to 100 nM
same,EC50,[5]; [11],16 to 50 nM
"CNC(=O)c1cc(O)c(-c2ccc(N(C)[C@H]3C[C@@H]4CC[C@@H](N4)[C@H]3F)nn2)cc1F [Compound 47B, 2-fluoro-4-(6-(((1R,2R,3S,5S)-2-fluoro-8-azabicyclo[3.2.1]octan-3-yl)(methyl)amino)pyridazin-3-yl)-5-hydroxy-N-methylbenzamide]","Papp A→B at 120 min, 5 μM",MDR1 (P-gp); A-B direction,1.26 ×10⁻⁶ cm/s
same,"Papp B→A at 120 min, 5 μM",MDR1 (P-gp); B-A direction,49.8 ×10⁻⁶ cm/s
same,MDCK-MDR1: % Recov A-B,[1]; A-B direction,101%
same,MDCK-MDR1: % Recov B-A,[1]; B-A direction,120%
same,"efflux ratio at 120 min, 5 μM",MDR1; efflux ratio,40
same,EC50,[2]; [9],16 to 50 nM
same,EC50,[3]; qPCR,51 to 100 nM
same,EC50,[4]; [10],51 to 100 nM
same,EC50,[5]; [11],51 to 100 nM
"CN(c1ccc(-c2cc3cnn(C)c3cc2O)nn1)[C@@H]1C[C@H]2CC[C@H](N2)[C@@H]1F [Compound 76A, 5-(6-(((1S,2S,3R,5R)-2-fluoro-8-azabicyclo[3.2.1]octan-3-yl)(methyl)amino)pyridazin-3-yl)-1-methyl-1H-indazol-6-ol]","Papp A→B at 120 min, 5 μM",MDR1 (P-gp); A-B direction,5.55 ×10⁻⁶ cm/s
same,"Papp B→A at 120 min, 5 μM",MDR1 (P-gp); B-A direction,69.2 ×10⁻⁶ cm/s
same,MDCK-MDR1: % Recov A-B,[1]; A-B direction,83%
same,MDCK-MDR1: % Recov B-A,[1]; B-A direction,88%
same,"efflux ratio at 120 min, 5 μM",MDR1; efflux ratio,12
same,EC50,[2]; [9],16 to 50 nM
same,EC50,[3]; qPCR,101 to 500 nM
same,EC50,[4]; [10],101 to 500 nM
same,EC50,[5]; [11],16 to 50 nM
"CN(c1ccc(-c2cc3cnccc3cc2O)nn1)[C@@H]1C[C@H]2CC[C@H](N2)[C@@H]1F (single isomer, unassigned) [Compound 7A]","Papp A→B at 120 min, 5 μM",MDR1 (P-gp); A-B direction,3.31 ×10⁻⁶ cm/s
same,"Papp B→A at 120 min, 5 μM",MDR1 (P-gp); B-A direction,20.1 ×10⁻⁶ cm/s
same,MDCK-MDR1: % Recov A-B,[1]; A-B direction,65%
same,MDCK-MDR1: % Recov B-A,[1]; B-A direction,75%
same,"efflux ratio at 120 min, 5 μM",MDR1; efflux ratio,6
same,EC50,[2]; [9],0.01 to 15 nM
same,EC50,[3]; qPCR,16 to 50 nM
same,EC50,"[4]; SMA patient fibroblasts GM03813, 24 h, qPCR",16 to 50 nM
same,EC50,[5]; [11],0.01 to 15 nM
"Cc1nc2cc(-c3ccc(N(C)[C@H]4C[C@@H]5CC[C@@H](N5)[C@H]4F)nn3)c(O)cc2c(=O)n1C [Compound 114B, 7-(6-(((1R,2R,3S,5S)-2-fluoro-8-azabicyclo[3.2.1]octan-3-yl)(methyl)amino)pyridazin-3-yl)-6-hydroxy-2,3-dimethylquinazolin-4(3H)-one]","Papp A→B at 120 min, 5 μM",MDR1 (P-gp); A-B,0.29 ×10⁻⁶ cm/s
same,"Papp B→A at 120 min, 5 μM",MDR1 (P-gp); B-A,43 ×10⁻⁶ cm/s
same,MDCK-MDR1: % Recov A-B,[1]; A-B,88%
same,MDCK-MDR1: % Recov B-A,[1]; B-A,94%
same,"efflux ratio at 120 min, 5 μM",MDR1,150
same,EC50,[2]; [6],0.01 to 15 nM
same,EC50,[3],0.01 to 15 nM
same,EC50,[4]; [7],0.01 to 15 nM
same,EC50,[5]; [8],0.01 to 15 nM
"CN(c1ccc(-c2ccc(-c3cnn(C)c3)cc2O)nn1)[C@H]1C[C@@H]2CCC[C@@H](N2)[C@@H]1F [Compound 14B, 2-(6-(((1R,2S,3S,5S)-2-fluoro-9-azabicyclo[3.3.1]nonan-3-yl)(methyl)amino)pyridazin-3-yl)-5-(1-methyl-1H-pyrazol-4-yl)phenol]","Papp A→B at 120 min, 5 μM",MDR1 (P-gp); A-B direction,2.95 ×10⁻⁶ cm/s
same,"Papp B→A at 120 min, 5 μM",MDR1 (P-gp); B-A direction,32.1 ×10⁻⁶ cm/s
same,MDCK-MDR1: % Recov A-B,[1]; A-B direction,54%
same,MDCK-MDR1: % Recov B-A,[1]; B-A direction,91%
same,"efflux ratio at 120 min, 5 μM",MDR1; efflux ratio,11
same,EC50,[2]; [9],0.01 to 15 nM
same,EC50,[3]; qPCR,0.01 to 15 nM
same,EC50,[4]; [10],51 to 100 nM
same,EC50,[5]; [11],0.01 to 15 nM
"C#Cc1ccc(-c2ccc(N(C)[C@H]3C[C@@H]4CC[C@@H](N4)[C@H]3F)nn2)c(O)c1 [Compound 10B, 5-ethynyl-2-(6-(((1R,2R,3S,5S)-2-fluoro-8-azabicyclo[3.2.1]octan-3-yl)(methyl)amino)pyridazin-3-yl)phenol]","Papp A→B at 120 min, 5 μM",MDR1 (P-gp); A-B direction,11.2 ×10⁻⁶ cm/s
same,"Papp B→A at 120 min, 5 μM",MDR1 (P-gp); B-A direction,21.2 ×10⁻⁶ cm/s
same,MDCK-MDR1: % Recov A-B,[1]; A-B direction,52%
same,MDCK-MDR1: % Recov B-A,[1]; B-A direction,82%
same,"efflux ratio at 120 min, 5 μM",MDR1; efflux ratio,2
same,EC50,[2]; [9],0.01 to 15 nM
same,EC50,[3]; qPCR,51 to 100 nM
same,EC50,[4]; [10],51 to 100 nM
same,EC50,[5]; [11],51 to 100 nM
"CN(c1ccc(-c2ccc(-c3cn[nH]c3)cc2O)nn1)[C@@H]1C[C@H]2CC[C@H](N2)[C@@H]1F (single isomer, unassigned) [Compound 42A]","Papp A→B at 120 min, 5 μM",MDR1 (P-gp); A-B direction,0.86 ×10⁻⁶ cm/s
same,"Papp B→A at 120 min, 5 μM",MDR1 (P-gp); B-A direction,36.8 ×10⁻⁶ cm/s
same,MDCK-MDR1: % Recov A-B,[1]; A-B direction,87%
same,MDCK-MDR1: % Recov B-A,[1]; B-A direction,91%
same,"efflux ratio at 120 min, 5 μM",MDR1; efflux ratio,43
same,EC50,[2]; [9],0.01 to 15 nM
same,EC50,[3]; qPCR,0.01 to 15 nM
same,EC50,[4]; [10],0.01 to 15 nM
same,EC50,[5]; [11],0.01 to 15 nM
